These results are taken from US10183950B2, “Thienopyrimidine inhibitors of atypical protein kinase C” (Cancer Research Technology Limited, priority 2011, dated 2019).

Where only a bound is given, the exact number is not on record here.

For orientation: IC50 means the concentration that gives 50% inhibition.

The first assay deals with T1, full-length human PKCι (Homo sapiens, UniProt P41743).
T1 construct: Recombinant, full-length human PKCι expressed in Sf21 insect cells is also commercially available; purchased; host or cells: Sf21 insect cells
T1 sequence (P41743 1-596): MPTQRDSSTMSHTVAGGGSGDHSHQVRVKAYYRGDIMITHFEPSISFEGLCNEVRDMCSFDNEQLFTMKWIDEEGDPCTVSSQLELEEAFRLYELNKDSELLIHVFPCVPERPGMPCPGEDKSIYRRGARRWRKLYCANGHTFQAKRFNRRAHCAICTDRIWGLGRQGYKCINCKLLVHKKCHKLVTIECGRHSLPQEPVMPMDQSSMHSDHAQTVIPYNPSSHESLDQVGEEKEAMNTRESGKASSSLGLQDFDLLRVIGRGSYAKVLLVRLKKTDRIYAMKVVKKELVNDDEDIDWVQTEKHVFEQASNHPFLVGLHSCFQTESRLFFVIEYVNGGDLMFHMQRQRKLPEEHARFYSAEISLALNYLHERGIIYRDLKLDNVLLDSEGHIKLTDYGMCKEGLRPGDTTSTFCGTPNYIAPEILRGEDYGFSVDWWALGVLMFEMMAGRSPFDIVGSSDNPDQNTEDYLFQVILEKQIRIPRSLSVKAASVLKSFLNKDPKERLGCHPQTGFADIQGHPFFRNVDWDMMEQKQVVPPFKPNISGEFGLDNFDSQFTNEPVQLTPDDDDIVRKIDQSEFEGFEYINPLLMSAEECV
Nature of the assay: PKCι IC50 IMAP fluorescence polarisation assay, full-length enzyme. It is filed as biochemical. Conditions: enzyme form not given; no asterisk; read-out: Activity (IC50 printed as a bound, no asterisk). On the procedure:
Assays are based on the ability of PKCι to phosphorylate a commercially available peptide substrate in vitro. […] Recombinant, full-length human PKCι expressed in Sf21 insect cells is also commercially available. Recombinant, kinase-domain human PKCι is expressed and purified in-house.
The procedure below explains how dose response curves for inhibitors of PKCι are obtained.
Compounds to be tested are dissolved in 100% DMSO. […] 1 μl is plated into 384 well black low-binding flat bottomed assay plates which are used immediately. Dilutions and additions of compound to assay plates are carried out using Matrix WellMate® and Matrix PlateMate® Plus liquid handling systems.
The final concentration of peptide substrate in the assay is 100 nM. […] Relevant controls are included, namely no compound and no enzyme. […] The reaction is allowed to incubate for 60 minutes at room temperature, before the reaction is stopped and developed by the addition of 20 μl IMAP™ development reagent (Molecular Devices). IMAP development reagent consists of 0.25% (v/v) IMAP progressive binding reagent, 17% (v/v) IMAP progressive binding buffer A and 3% (v/v) IMAP progressive binding buffer B. The plates are then incubated for 2 hours at room temperature before being read using an appropriate plate reader, for example a Molecular Devices HT Analyst or a BMG Pherastar.
Turning to `Cn1cc(-c2nc(NCCN)c3c4c(sc3n2)CCCC4)cn1` [compound 195, N*1*-[2-(1-Methyl-1H-pyrazol-4-yl)-5,6,7,8-tetrahydro-benzo[4,5]thieno[2,3-d]pyrimidin-4-yl]-ethane-1,2-diamine], the IC50 was more than 60 µM.

Staying with this assay, now noted: full length PKCi at 15 μM ATP; read-out: IC50 in IMAP assay against full length PKCi.
For `COc1ccccc1C[C@H](N)CNc1nc(-c2ccncc2)nc2c(Br)c(C(C)(C)C)sc12` [compound 303, (S)—N*1*-(7-bromo-6-tert-butyl-2-pyridin-4-yl-thieno[3,2-d]pyrimidin-4-yl)-3-(2-methoxy-phenyl)-propane-1,2-diamine], the IC50 fell in the range of 10 to 40 µM.
Still for that read-out and setting: the same measure for `N[C@H](CNc1nc(-c2ccncc2F)nc2c(Br)csc12)Cc1ccccc1` [compound 304, (S)—N*1*-[7-Bromo-2-(3-fluoro-pyridin-4-yl)-thieno[3,2-d]pyrimidin-4-yl]-3-phenyl-propane-1,2-diamine]: less than 0.1 µM; for `C[C@H](N)CNc1nc(-c2ccncc2)nc2c(Br)csc12` [compound 305, (S)—N*1*-(7-Bromo-2-pyridin-4-yl-thieno[3,2-d]pyrimidin-4-yl)-propane-1,2-diamine]: 0.1 to 1 µM; for `N[C@H](CNc1nc(-c2ccncc2)nc2c(Cl)csc12)Cc1ccccc1` [compound 306, (S)—N*1*-(7-Chloro-2-pyridin-4-yl-thieno[3,2-d]pyrimidin-4-yl)-3-phenyl-propane-1,2-diamine]: less than 0.1 µM.
Same read-out and setting: with `Cc1sc2c(NCCN)nc(-c3ccncc3)nc2c1C` [compound 309, N*1*-(6,7-Dimethyl-2-pyridin-4-yl-thieno[3,2-d]pyrimidin-4-yl)-ethane-1,2-diamine] the figure was 1 to 10 µM; with `NCCNc1nc(-c2ccncc2)nc2c(-c3ccc(Br)cc3)csc12` [compound 310, N*1*-[7-(4-Bromo-phenyl)-2-pyridin-4-yl-thieno[3,2-d]pyrimidin-4-yl]-ethane-1,2-diamine], 1 to 10 µM.
The same measure, in the same setting: with `N[C@H](CNc1nc(-c2ccncc2)nc2ccsc12)Cc1ccccc1` [compound 314, (S)-3-Phenyl-N*1*-(2-pyridin-4-yl-thieno[3,2-d]pyrimidin-4-yl)-propane-1,2-diamine] the figure was 0.1 to 1 µM.

Staying with this assay, now noted: full length PKCi at 15 μM ATP; read-out: IC50 in IMAP assay against full length PKCi (Activity).
With `CC(C)(C)OC(=O)N1CCc2c(sc3nc(-c4ccncc4)nc(NC[C@@H](N)Cc4ccccc4)c23)C1` [compound 90, 4-((S)-2-Amino-3-phenyl-propylamino)-2-pyridin-4-yl-5,8-dihydro-6H-pyrido[4′,3′:4,5]thieno[2,3-d]pyrimidine-7-carboxylic acid tert-butyl ester], the IC50 was in the range of 1 to 10 µM.
Consider `C[C@H](N)CNc1nc(-c2ccncc2)nc2sc3c(c12)CCN(C(=O)OC(C)(C)C)C3` [compound 96, 4-((S)-2-Amino-propylamino)-2-pyridin-4-yl-5,8-dihydro-6H-pyrido[4′,3′:4,5]thieno[2,3-d]pyrimidine-7-carboxylic acid tert-butyl ester], for which the IC50 was in the range of 10 to 40 µM.
On the same count and under the same terms, with `N[C@H](CNc1nc(-c2ccncc2F)nc2sc3c(c12)CCCC3)Cc1ccccc1` [compound 101, (S)-N*1*-[2-(3-Fluoro-pyridin-4-yl)-5,6,7,8-tetrahydro-benzo[4,5]thieno[2,3-d]pyrimidin-4-yl]-3-phenyl-propane-1,2-diamine] the figure was 1 to 10 µM; with `COc1cnccc1-c1nc(NC[C@@H](N)Cc2ccccc2)c2c3c(sc2n1)CCCC3` [compound 102, (S)—N*1*-[2-(3-methoxy-pyridin-4-yl)-5,6,7,8-tetrahydro-benzo[4,5]thieno[2,3-d]pyrimidin-4-yl]-3-phenyl-propane-1,2-diamine], 10 to 40 µM.
Still for that read-out and setting: the same measure for `N[C@H](CNc1nc(-c2ccncc2O)nc2sc3c(c12)CCCC3)Cc1ccccc1` [compound 103, 4-[4-((S)-2-Amino-3-phenyl-propylamino)-5,6,7,8-tetrahydro-benzo[4,5]thieno[2,3-d]pyrimidin-2-yl]-pyridin-3-ol]: 1 to 10 µM.
Regarding `CC(C)(C)C(=O)N1CCc2c(sc3nc(-c4ccncc4)nc(NCCN)c23)C1` [compound 104, 1-[4-(2-amino-ethylamino)-2-pyridin-4-yl-5,8-dihydro-6H-pyrido[4′,3′:4,5]thieno[2,3-d]pyrimidin-7-yl]-2,2-dimethyl-propan-1-one], the IC50 lay within 10 to 40 µM.
On the same count and under the same terms, with `CC(=O)N1CCc2c(sc3nc(-c4ccncc4)nc(NCCN)c23)C1` [compound 105, 1-[4-(2-Amino-ethylamino)-2-pyridin-4-yl-5,8-dihydro-6H-pyrido[4′,3′:4,5]thieno[2,3-d]pyrimidin-7-yl]-ethanone] the figure was 1 to 10 µM; with `CCC(=O)N1CCc2c(sc3nc(-c4ccncc4)nc(NCCN)c23)C1` [compound 106, 1-[4-(2-Amino-ethylamino)-2-pyridin-4-yl-5,8-dihydro-6H-pyrido[4′,3′:4,5]thieno[2,3-d]pyrimidin-7-yl]-propan-1-one], 10 to 40 µM.
Still for that read-out and setting: the same measure for `CC(C)C(=O)N1CCc2c(sc3nc(-c4ccncc4)nc(NCCN)c23)C1` [compound 107, 1-[4-(2-Amino-ethylamino)-2-pyridin-4-yl-5,8-dihydro-6H-pyrido[4′,3′:4,5]thieno[2,3-d]pyrimidin-7-yl]-2-methyl-propan-1-one]: 10 to 40 µM; for `NCCNc1nc(-c2ccncc2)nc2sc3c(c12)CCN(C(=O)C1CC1)C3` [compound 108, [4-(2-Amino-ethylamino)-2-pyridin-4-yl-5,8-dihydro-6H-pyrido[4′,3′:4,5]thieno[2,3-d]pyrimidin-7-yl]-cyclopropyl-methanone]: 10 to 40 µM.
Still for that read-out and setting: with `NCCNc1nc(-c2ccncc2)nc2sc3c(c12)CCN(C(=O)C1CCC1)C3` [compound 109, [4-(2-Amino-ethylamino)-2-pyridin-4-yl-5,8-dihydro-6H-pyrido[4′,3′:4,5]thieno[2,3-d]pyrimidin-7-yl]-cyclobutyl-methanone] the figure was 10 to 40 µM; with `CCCCC(=O)N1CCc2c(sc3nc(-c4ccncc4)nc(NCCN)c23)C1` [compound 110, 1-[4-(2-Amino-ethylamino)-2-pyridin-4-yl-5,8-dihydro-6H-pyrido[4′,3′:4,5]thieno[2,3-d]pyrimidin-7-yl]-pentan-1-one], 10 to 40 µM; with `CN(C)CC(=O)N1CCc2c(sc3nc(-c4ccncc4)nc(NCCN)c23)C1` [compound 111, 1-[4-(2-Amino-ethylamino)-2-pyridin-4-yl-5,8-dihydro-6H-pyrido[4′,3′:4,5]thieno[2,3-d]pyrimidin-7-yl]-2-dimethylamino-ethanone], 10 to 40 µM.
Regarding `CCN1CCc2c(sc3nc(-c4ccncc4)nc(NCCN)c23)C1` [compound 112, N*1*-(7-ethyl-2-pyridin-4-yl-5,6,7,8-tetrahydro-pyrido[4′,3′:4,5]thieno[2,3-d]pyrimidin-4-yl)-ethane-1,2-diamine], the half-maximal inhibitory concentration (IC50) lay in the range of 10 to 40 µM.
On the same count and under the same terms, with `CN1CCc2c(sc3nc(-c4ccncc4)nc(NCCN)c23)C1` [compound 113, N*1*-(7-Methyl-2-pyridin-4-yl-5,6,7,8-tetrahydro-pyrido[4′,3′:4,5]thieno[2,3-d]pyrimidin-4-yl)-ethane-1,2-diamine] the figure was 10 to 40 µM; with `CC(C)CN1CCc2c(sc3nc(-c4ccncc4)nc(NCCN)c23)C1` [compound 114, N*1*-(7-Isobutyl-2-pyridin-4-yl-5,6,7,8-tetrahydro-pyrido[4′,3′:4,5]thieno[2,3-d]pyrimidin-4-yl)-ethane-1,2-diamine], 10 to 40 µM.
On the same count and under the same terms, the same measure for `c1cc(-c2nc(O[C@@H]3CCNC3)c3c4c(sc3n2)CCCC4)ccn1` [compound 139, 2-Pyridin-4-yl-4-((R)-pyrrolidin-3-yloxy)-5,6,7,8-tetrahydro-benzo[4,5]thieno[2,3-d]pyrimidine]: 1 to 10 µM.
On the same count and under the same terms, with `c1ccc(C[C@H]2CN(c3nc(-c4cn[nH]c4)nc4sc5c(c34)CCCC5)CCN2)cc1` [compound 196, 4-((S)-3-Benzyl-piperazin-1-yl)-2-(1H-pyrazol-4-yl)-5,6,7,8-tetrahydro-benzo[4,5]thieno[2,3-d]pyrimidine] the figure was 1 to 10 µM; with `Cc1sc2c(NC[C@@H](N)Cc3ccccc3)nc(-c3ccncc3)nc2c1Br` [compound 300, (S)—N*1*-(7-bromo-6-methyl-2-pyridin-4-yl-thieno[3,2-d]pyrimidin-4-yl)-3-phenyl-propane-1,2-diamine], less than 0.1 µM.
